Reference: ChEMBL document CHEMBL1201862, “PubChem BioAssay data set” (2004)
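The compound was tested at five concentrations on cells cultured in 96-well plates, with a 48-hour exposure period. At the GI50, growth is halved.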 Calls of active or inactive are those of the source. Cut-off read from the data, not from the text of the source: active = GI50 up to about 1.1 µM and inactive = higher.

Tests used:
Assay in all cases: DTP human tumour cell line panel, 48 h
[1] = system: UO-31
[2] = system: IGROV-1
[3] = system: HL-60
[4] = system: SNB-75
[5] = system: M14
[6] = system: NCI-H522
[7] = system: SF-295
[8] = system: ACHN
[9] = system: SF-539
[10] = system: A498
[11] = system: DU-145
[12] = system: RXF 393
[13] = system: SN12C
[14] = system: HOP-92
[15] = system: MDA-MB-435
[16] = system: A549
[17] = system: UACC-62
[18] = system: OVCAR-3
[19] = system: K562
[20] = system: SK-MEL-28

Measured: GI50

CCOC(=O)CCC(C(=O)OCC)n1nnc2cc(Nc3c(C)[n+]([O-])c4cc(Cl)ccc4[n+]3[O-])ccc21 (configuration not stated)
inactive: [1] 72.6 µM | [2] > 100 µM | [3] 41.3 µM | [4] 89.3 µM | [5] 44.6 µM | [6] > 100 µM | [7] 68.5 µM | [8] 46.2 µM | [9] 95.5 µM | [10] > 100 µM | [11] > 100 µM | [12] 53.6 µM | [13] 96.6 µM | [14] 67.9 µM | [15] > 100 µM | [16] > 100 µM | [17] 55.7 µM | [18] 40.2 µM | [19] 59.2 µM

O=C(NC(Cc1c[nH]c2ccccc12)C(=O)O)/C(=C/c1ccccc1)NC(=O)c1ccccc1 (configuration not stated)
inactive: [1] 53.2 µM | [2] 32.1 µM | [3] 77.6 µM | [4] 32.7 µM | [5] 46 µM | [6] 25.3 µM | [20] > 88.9 µM | [7] 36.4 µM | [8] > 94.8 µM | [9] 49.4 µM | [10] > 81.8 µM | [11] 79.8 µM | [12] 34.8 µM | [13] > 100 µM | [14] 23.9 µM | [15] 78.9 µM | [16] 38.2 µM | [17] 41.2 µM | [18] 38.4 µM | [19] 59.7 µM

COc1ccc(C2=C(Cl)C(=O)O/C2=C\c2ccc(OC)c(Br)c2)cc1Cl
inactive: [1] 53.1 µM | [2] 33.7 µM | [3] > 100 µM | [4] > 100 µM | [5] 70.8 µM | [6] 25.6 µM | [20] > 100 µM | [7] 15.7 µM | [8] 16.3 µM | [9] 16.1 µM | [10] 17.3 µM | [11] 74.6 µM | [12] 18.3 µM | [14] 24 µM | [15] > 100 µM | [16] 33.3 µM | [17] 22.8 µM | [18] 23 µM | [19] 35.2 µM

O=C(O)C1=C(C(=O)O)N(c2ccncc2)C(c2ccco2)=CC1c1ccccc1[N+](=O)[O-] (configuration not stated)
inactive: [1] 8.26 µM | [2] 1.85 µM | [3] 2.88 µM | [4] 7.4 µM | [5] 7.01 µM | [6] 1.77 µM | [20] 16.2 µM | [7] 12.2 µM | [8] 1.72 µM | [9] 2.11 µM | [10] 11.8 µM | [11] 12.1 µM | [12] 7.94 µM | [13] 13.1 µM | [14] 7.06 µM | [15] 13.5 µM | [16] 16.2 µM | [17] 15.3 µM | [18] 8.17 µM | [19] 2.85 µM

COC(=O)C(NC(=O)CSc1nnc(COc2ccc(Cl)cc2)n1-c1ccccc1)C(C)C (configuration not stated)
inactive: [1] 26.7 µM | [2] 16.3 µM | [3] 16.7 µM | [4] 14.6 µM | [5] 21.9 µM | [6] 10.6 µM | [20] 21.5 µM | [7] 22 µM | [8] 39.3 µM | [9] 31.2 µM | [10] 21.2 µM | [11] 37.3 µM | [12] 24 µM | [13] 18.6 µM | [14] 21.6 µM | [15] 19.9 µM | [16] 35.2 µM | [17] 17.8 µM | [18] 16.5 µM | [19] 53.8 µM

O=P(O)(O)OP(=O)(O)O
inactive: [1] > 100 µM | [2] > 100 µM | [3] > 100 µM | [4] > 100 µM | [5] > 100 µM | [6] > 100 µM | [20] > 100 µM | [8] > 100 µM | [9] > 100 µM | [10] > 100 µM | [11] > 100 µM | [12] > 100 µM | [13] > 100 µM | [14] > 100 µM | [15] > 100 µM | [16] > 100 µM | [17] > 100 µM | [18] > 100 µM | [19] > 100 µM

O=C(NC(c1ccccc1)C(O)C(=O)OCc1ccc2c(c1)C(=O)c1ccccc1C2=O)c1ccccc1 (configuration not stated)
inactive: [1] 2.86 µM | [2] 18.5 µM | [3] > 83.6 µM | [4] 4.37 µM | [5] 36.1 µM | [6] 14.8 µM | [20] 28.1 µM | [7] 10.6 µM | [8] 9.31 µM | [9] 6.31 µM | [10] 5.71 µM | [11] 54.7 µM | [12] 3.13 µM | [13] 8.69 µM | [14] 3.15 µM | [15] 34.4 µM | [16] 9.91 µM | [17] 14.7 µM | [18] 12.6 µM | [19] > 90.6 µM
